The results in this text go back to patent publication US20240182549A1, “PEPTIDES AND ANTIBODY FUSIONS THAT BIND TO SARS-COV-2 AND METHODS OF USING SAME” (priority 2021, published 2024).

The test system of experiment [1] is SARS-CoV-2 strain 2019 n-CoV/USA_WA1/2020. The format is cell-based.
Experiment [2] deals with SARS-CoV-2 S protein pseudotyped virus-like particles. The format is cell-based.
The next experiment addresses SARS-CoV-2 RBD (RBD-Fc) (Severe acute respiratory syndrome coronavirus 2, UniProt P0DTC2).
In experiment [3] the test system is B.1.1.529 (Omicron) S protein RBD. It counts as binding, SARS-CoV-2.

“Also recorded” adds a separate entry of the source. Ends that are not written are not given here.

For the substance “p16 (DFDFAENWMEQLKVML; not fully specified)”, the “improvement in 15033 neutralization efficiency (in words)” value in experiment [1] was “most marked improvement”. Also, in experiment [2], the “neutralization potency compared to parent IgG (in words)” value is recorded as “marked improvement in neutralization potency”. Moreover, the “binding of peptide-phage to RBD (in words)” value (from here on “binding of peptide-phage”) in the experiment with SARS-CoV-2 RBD (RBD-Fc) is given as “no measurable interaction”.

For “p96 (TAYECFQFPEWSCESE; not fully specified; cysteine pairing not given here)”, the “potency compared to 15033 parental (in words)” value in experiment [1] is “no apparent improvement in potency; also recorded: decreased potency”. In the experiment with SARS-CoV-2 RBD (RBD-Fc), the “binding of peptide-phage” value is recorded as “no measurable interaction”.

On to “p102 (ECWEWSYQLQEWSPCP; not fully specified; cysteine pairing not given here)”, for which, in experiment [1], the “improvement in 15033 neutralization efficiency (in words)” value was “second best”. Moreover, in experiment [2], the “neutralization potency compared to parent IgG (in words)” value was “marked improvement in neutralization potency”. The “binding to omicron RBD (in words)” value in experiment [3] was “equivalent binding efficiency”. In the experiment with SARS-CoV-2 RBD (RBD-Fc), the “EC50 of phage-displayed peptide” value is on record as 0.04 A268 nm absorbance units and the “binding of peptide-phage” value is given as “bound”.
